{
  "source": "patent US12403129B2",
  "about": "“Isotope-enriched 3-amino-1-propanesulfonic acid derivatives for the treatment of cerebrovascular disease” (RISEN (SUZHOU) PHARMA TECH CO., LTD., priority 2021, dated 2025)",
  "origin": "cited, not measured here",
  "key": {"[1]": {"details": "produces three potential metabolites; major metabolite 2-carboxyethanesulfonic acid; cited from earlier work"}, "[2]": {"target": "interaction between PSD95 and nNOS (Homo sapiens, UniProt P29475+P78352)", "sequence (P78352 whole entry)": "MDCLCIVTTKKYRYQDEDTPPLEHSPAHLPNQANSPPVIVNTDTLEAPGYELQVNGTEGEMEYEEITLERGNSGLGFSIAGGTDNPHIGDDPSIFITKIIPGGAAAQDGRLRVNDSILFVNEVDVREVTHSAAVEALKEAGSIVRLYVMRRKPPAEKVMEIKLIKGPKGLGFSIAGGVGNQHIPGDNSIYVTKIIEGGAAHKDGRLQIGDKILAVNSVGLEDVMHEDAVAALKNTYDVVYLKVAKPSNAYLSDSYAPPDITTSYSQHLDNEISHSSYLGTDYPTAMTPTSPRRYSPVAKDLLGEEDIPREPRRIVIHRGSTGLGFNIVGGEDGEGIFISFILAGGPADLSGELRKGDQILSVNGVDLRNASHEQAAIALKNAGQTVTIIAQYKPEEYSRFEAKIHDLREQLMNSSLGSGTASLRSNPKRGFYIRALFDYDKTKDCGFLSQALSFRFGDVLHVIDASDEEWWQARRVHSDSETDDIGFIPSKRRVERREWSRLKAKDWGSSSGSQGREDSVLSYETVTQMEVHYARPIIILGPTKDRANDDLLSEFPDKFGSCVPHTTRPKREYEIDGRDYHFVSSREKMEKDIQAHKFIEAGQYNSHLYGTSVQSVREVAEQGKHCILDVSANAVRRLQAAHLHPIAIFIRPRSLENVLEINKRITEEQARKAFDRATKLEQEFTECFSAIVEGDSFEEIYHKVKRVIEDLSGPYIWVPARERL", "sequence (P29475 whole entry)": "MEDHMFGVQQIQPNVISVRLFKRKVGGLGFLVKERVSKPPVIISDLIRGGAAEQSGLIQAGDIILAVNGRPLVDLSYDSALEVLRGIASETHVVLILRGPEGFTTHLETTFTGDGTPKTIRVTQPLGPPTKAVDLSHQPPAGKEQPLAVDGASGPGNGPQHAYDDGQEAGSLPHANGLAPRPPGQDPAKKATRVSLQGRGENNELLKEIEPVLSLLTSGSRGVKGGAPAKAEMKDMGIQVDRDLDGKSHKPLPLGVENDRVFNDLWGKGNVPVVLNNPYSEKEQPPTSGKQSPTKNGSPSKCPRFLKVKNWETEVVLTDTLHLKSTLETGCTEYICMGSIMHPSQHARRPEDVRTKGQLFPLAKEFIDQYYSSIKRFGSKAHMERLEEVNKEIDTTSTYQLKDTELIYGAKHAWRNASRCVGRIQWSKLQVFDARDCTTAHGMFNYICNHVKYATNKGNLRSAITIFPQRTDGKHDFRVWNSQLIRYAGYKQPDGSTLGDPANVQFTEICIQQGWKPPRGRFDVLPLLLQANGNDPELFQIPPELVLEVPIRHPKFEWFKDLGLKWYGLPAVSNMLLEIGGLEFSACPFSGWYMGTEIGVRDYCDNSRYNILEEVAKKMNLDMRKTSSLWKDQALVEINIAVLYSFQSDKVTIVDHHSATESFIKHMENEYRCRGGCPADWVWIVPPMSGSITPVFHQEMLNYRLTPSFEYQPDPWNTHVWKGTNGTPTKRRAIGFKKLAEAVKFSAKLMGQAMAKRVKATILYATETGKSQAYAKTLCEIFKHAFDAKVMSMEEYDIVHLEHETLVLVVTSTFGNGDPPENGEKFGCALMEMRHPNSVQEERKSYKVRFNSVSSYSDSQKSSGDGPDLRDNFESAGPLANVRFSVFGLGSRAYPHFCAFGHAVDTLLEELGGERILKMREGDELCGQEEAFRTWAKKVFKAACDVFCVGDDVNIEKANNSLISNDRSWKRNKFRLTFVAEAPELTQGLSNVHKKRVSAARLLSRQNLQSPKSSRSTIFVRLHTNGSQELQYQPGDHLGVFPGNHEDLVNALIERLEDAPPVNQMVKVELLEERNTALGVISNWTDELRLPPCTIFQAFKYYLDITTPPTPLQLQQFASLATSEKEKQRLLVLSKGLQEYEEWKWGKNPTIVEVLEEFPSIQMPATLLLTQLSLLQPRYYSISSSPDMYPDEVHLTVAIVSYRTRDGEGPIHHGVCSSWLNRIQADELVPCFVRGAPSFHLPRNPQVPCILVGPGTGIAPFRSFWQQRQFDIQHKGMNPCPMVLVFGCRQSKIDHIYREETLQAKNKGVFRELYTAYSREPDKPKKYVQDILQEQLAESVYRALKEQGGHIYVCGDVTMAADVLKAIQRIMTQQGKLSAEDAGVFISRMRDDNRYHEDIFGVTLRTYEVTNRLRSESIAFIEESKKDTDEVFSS", "details": "by blocking the interaction between PSD95 and nNOS; cited from earlier work"}},
  "data": [
    {"smiles": "NCCCS(=O)(=O)O", "note": "[Tramiprosate, 3-amino-1-propanesulfonic acid]", "values": [
      {"measurement": "metabolism in vivo", "setting": "[1]", "value": "extensively metabolized"},
      {"measurement": "protection of neurons from ischemic stroke", "setting": "[2]", "value": "can protect neurons from ischemic stroke"}
    ]}
  ]
}
